We go through one molecule from paper PMC8740755 (Proceedings of the National Academy of Sciences of the …, 2021).

This assay has as its target WipA (Legionella pneumophila, UniProt Q5ZS02).

WipA, sequence (Q5ZS02 1-520): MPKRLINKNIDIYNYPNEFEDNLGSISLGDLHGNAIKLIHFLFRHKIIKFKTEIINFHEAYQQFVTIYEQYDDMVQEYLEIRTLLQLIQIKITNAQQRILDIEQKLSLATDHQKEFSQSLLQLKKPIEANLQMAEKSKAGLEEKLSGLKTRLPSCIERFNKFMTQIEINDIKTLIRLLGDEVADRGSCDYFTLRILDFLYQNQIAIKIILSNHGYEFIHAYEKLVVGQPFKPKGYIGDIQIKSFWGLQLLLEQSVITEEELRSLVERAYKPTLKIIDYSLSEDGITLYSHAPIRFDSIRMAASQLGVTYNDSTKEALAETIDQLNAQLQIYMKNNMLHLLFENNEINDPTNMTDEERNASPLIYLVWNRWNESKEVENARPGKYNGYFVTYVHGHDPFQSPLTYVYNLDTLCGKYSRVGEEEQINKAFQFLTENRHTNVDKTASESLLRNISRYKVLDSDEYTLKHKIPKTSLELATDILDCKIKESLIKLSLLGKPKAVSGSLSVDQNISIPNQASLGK

Turning to `O=[N+]([O-])c1ccc(OP(=O)(O)O)cc1` [pNPP], the “free phosphate by malachite green assay” value is “exhibited robust activity, and a mutation in its active site abolished such activity”.
